Measured values reported in US20160115540A1, “PRODRUGS AND DRUGS” (Biogen MA Inc., priority 2013, published 2016).
Structures can show the parent of a compound that is named as a salt.

Test system: jejunum
Assay: Transcriptional profiling on Affymetrix GeneChips, single dose, naïve mice: jejunum
Format: in vivo, C57BL/6 mice
Protocol: Treated mice were sacrificed at 2, 7, or 12 hours. Tissues (liver, spleen, kidney, jejunum, cortex, hippocampus, striatum and whole blood) were collected and analyzed by transcriptional profiling on mouse Affymetrix GeneChips.
Tissues (liver, spleen, kidney, jejunum, cortex, hippocampus, striatum and whole blood) were collected and analyzed by transcriptional profiling on mouse Affymetrix GeneChips.
Animals were exposed to CO2 and whole blood collected via cardiac puncture. Two 100 μl aliquots of whole blood were collected in 1.5 mL microcentrifuge tubes and snap frozen in liquid nitrogen. Peripheral (liver, spleen, kidney and jejunum) and CNS brain (cerebellum, hippocampus, striatum and cortex) tissues were harvested and snap frozen in liquid nitrogen, with special care taken to collect tissues of similar size and from the same location. All samples were stored at −80° C. until RNA extraction was conducted.
For RNA preparation, frozen tissues were placed in 2 mL RNAse-free 96-well blocks with 1.5 mL QIAzol Lysis Reagent (QIAgen) and a 3.2 mm stainless steel bead (BioSpec Products, Bartlesville, Okla.). Tissues were disrupted for four cycles of 45 seconds in a Mini-Beadbeater (Biospec Products). RNA was extracted in chloroform and the aqueous phase was mixed with an equal volume of 70% ethanol. Extracted RNA was applied to RNeasy 96 plates and purified by the spin method according to the manufacturer's protocol (RNeasy 96 Universal Tissue Protocol, QIAgen, Hilden Germany).
Automated sample amplifications and biotin labelings were carried out using the NuGEN Ovation RNA Amplification system V2 (Cat #3100), Ovation WB reagent (Cat #1300) and Encore Biotin module (Cat #4200) (NuGEN Technologies, Inc, San Carlos, Calif.) according to manufacturer's recommendations using an Arrayplex automated liquid handler (Beckman Coulter, Indianapolis, Ind.). Two micrograms of biotin labeled sscDNA probe were hybridized to Affymetrix GeneChip Affymetrix HT_MG-430_PM plate arrays with modified conditions as described in Allaire et al. Washing and staining of the hybridized arrays were completed as described in the GeneChip Expression analysis technical manual for HT plate arrays using the Genechip® Array Station (Affymetrix, Santa Clara, Calif.) with modifications as described in Allaire et al. The processed GeneChip® plate arrays were scanned using GeneTitan scanner (Affymetrix, Santa Clara, Calif.).
Affymetrix scans were subject to quality control (QC) measures. These tests included a visual inspection of the distribution of raw signal intensities and an assessment of RNA degradation, relative log expression (RLE), and normalized unsealed standard error (NUSE). All sample scans that passed these QC metrics were included in the analysis.
All CEL files were subjected to GC-content-based Robust Multi-array Average (GCRMA) normalization (version 2.20.0) (Irizarry R A, et al. Nucleic Acids Res 2003; 31:e15; Li C, et al. Genome Biol 2001; 2:[…]0032). Expression levels were log (base 2) transformed.
All calculations and analyses were carried out using R (version 2.11.1) and Bioconductor computational tools (Gentleman R. Springer Science+Business Media 2005).

[1] = 100DMF-vs-Veh or 100MMF-vs-Veh, 12 h

## COC(=O)/C=C/C(=O)O [MMF, monomethyl fumarate]
[1]
  FC Abcc3 (1428988_PM_at): 2.10
  FC Acsm5 (1437662_PM_at): 1.95
  FC Akr1b8 (1448894_PM_at): 18.78
  FC Akr1c12 (1450455_PM_s_at): 1.76
  FC Akr1c19 (1455454_PM_at): 3.53
  FC Blvrb (1451386_PM_at): 1.54
  FC Cbr3 (1427912_PM_at): 32.24
  FC Ces1e (1419510_PM_at): 2.77
  FC Ces1f (1424266_PM_s_at): 6.54
  FC Ces1g (1449486_PM_at): 9.45
  FC G6pd2 (1422327_PM_s_at): 1.83
  FC Gpx2 (1449279_PM_at): 1.54
  FC Gsr (1421816_PM_at): 2.67
  FC Gss (1441931_PM_x_at): 1.55
  FC Gsta2 (1421040_PM_a_at): 6.66
  FC Gsta2 (1421041_PM_s_at): 2.09
  FC Gsta3 (1423436_PM_at): 10.80
  FC Gsta3 (1423437_PM_at): 7.97
  FC Gstm1 (1425627_PM_x_at): 4.61
  FC Gstm1 (1448330_PM_at): 4.27
  FC Gstm3 (1427473_PM_at): 2.14
  FC Gstm3 (1427474_PM_s_at): 1.58
  FC Gstm4 (1424835_PM_at): 5.43
  FC Gstm6 (1422072_PM_a_at): 2.19
  FC Nqo1 (1423627_PM_at): 2.34
  FC Pir (1429001_PM_at): 4.19
  FC Setd4 (1425239_PM_at): 1.60
  FC Setd4 (1460373_PM_a_at): 1.56
  FC Slc5a4b (1422757_PM_at): 2.16
  FC Ugt2b5 (1419622_PM_at): 5.00
  FC Ugt2b35 (1439624_PM_at): 2.45
  FC Ugt2b36 (1455595_PM_at): 3.03
100MMF-vs-Veh, 2 h
  FC 6-Sep (1424181_PM_at): 1.56
  FC 1443118_PM_at: 1.69
  FC 1444265_PM_at: 1.93
  FC 1445980_PM_at: 2.43
  FC 1446045_PM_at: 1.69
  FC 1447411_PM_at: 2.81
  FC 1459091_PM_at: 2.02
  FC 2010002N04Rik (1423306_PM_at): 1.57
  FC 9030409G11Rik (1434169_PM_at): 1.52
  FC 9130221J17Rik (1443159_PM_at): 2.36
  FC Acss2 (1446542_PM_at): 1.84
  FC Akr1b8 (1448894_PM_at): 8.24
  FC Akr1c19 (1455454_PM_at): 2.33
  FC Areg (1421134_PM_at): 2.71
  FC Blvrb (1451386_PM_at): 1.57
  FC Bmp2 (1423635_PM_at): −1.55
  FC Cbr1 (1460196_PM_at): 1.53
  FC Cbr3 (1427912_PM_at): 55.49
  FC Ces1f (1424266_PM_s_at): 2.71
  FC Ces1g (1449486_PM_at): 3.68
  FC Dnase2a (1430135_PM_at): 1.79
  FC Dppa5a (1416552_PM_at): 2.64
  FC Ereg (1419431_PM_at): 2.00
  FC Ero1l (1419030_PM_at): 1.90
  FC Esd (1441604_PM_at): 1.52
  FC Figf (1438953_PM_at): 1.63
  FC G6pd2 (1422327_PM_s_at): 1.74
  FC Gabarapl1 (1416418_PM_at): 1.52
  FC Gclc (1424296_PM_at): 3.99
  FC Gclc (1455959_PM_s_at): 3.06
  FC Gsr (1421816_PM_at): 2.19
  FC Gss (1441931_PM_x_at): 1.92
  FC Gss (1448273_PM_at): 1.69
  FC Gsta3 (1423436_PM_at): 3.23
  FC Gsta3 (1423437_PM_at): 3.64
  FC Gstm1 (1416416_PM_x_at): 2.38
  FC Gstm1 (1425627_PM_x_at): 2.70
  FC Gstm1 (1448330_PM_at): 2.47
  FC Gstm3 (1427473_PM_at): 2.51
  FC Gstm3 (1427474_PM_s_at): 1.57
  FC Hfe 1422645_PM_at: 1.73
  FC Htatip2 (1451814_PM_a_at): 1.53
  FC LOC100504040 (1457279_PM_at): 2.24
  FC Lpin2 (1452837_PM_at): 1.61
  FC Lrp8 (1440882_PM_at): 2.23
  FC Mafg (1434054_PM_at): 1.95
  FC Mafg (1448916_PM_at): 2.01
  FC Nqo1 (1423627_PM_at): 2.16
  FC Osgin1 (1424022_PM_at): 1.98
  FC Prr5l (1452834_PM_at): −1.64
  FC Prss8 (1418320_PM_at): 2.41
  FC Setd4 (1425239_PM_at): 2.11
  FC Setd4 (1435405_PM_at): 1.93
  FC Setd4 (1460373_PM_a_at): 1.87
